Data published in patent publication US8629116B2, “Method for inducing a TRIF-bias” (priority 2008, dated 2014).
Entries after “also recorded” stand apart in the source; their conditions may differ.

Key:
[1] = test system: MonoMac6 (MM6) cells; assay: NFκB nuclear translocation in MonoMac6 cells (ImageStream); format: cell-based, human
Source text: MonoMac6 Cells in exponential growth are stimulated with increasing concentrations of AGP diluted in 2% glycerol vehicle for the indicated time points. Immediately fixed cells (in 2% paraformalin overnight) are stained with the primary antibodies, anti-NFκB(p65) (SantaCruz Biotechnology, SantaCruz, Calif.) and anti-IRF3 (BD Biosciences, San Jose, Calif.), in permeabilization buffer (PBS, 2% FBS, 0.1% TritonX) followed by secondary antibodies, anti-Rabbit FITC (Jackson Labs, Bar Harbor, Me.), anti-mouse PE (BD Biosciences, San Jose, Calif.). Similarity scores of signaling protein localization with the nuclear stain DRAQ5 (Alexis Biochemicals (San Diego, Calif.) are used for ImageStream analysis of Nuclear Translocation as previously described {George, 2006 32669/id}. A minimum of 3000 cells are collected and analyzed for each condition tested.
Interferon […] Factor-3 (IRF-3) is a transcription factor activated downstream of the TRIF-dependent TLR4 signaling pathway (Yamamoto et al. 640-43). IRF-3 phosphorylation leads to IRF-3 dimerization, nuclear translocation, and induction of transcription of Type I interferon (IFNβ) and interferon-inducible genes (Honda, Takaoka, and Taniguchi 349-60; Tailor, Tamura, and Ozato 134-40). The ImageStream is capable of measuring nuclear translocation of both NFκB and IRF-3 by quantification of co-localization between the labeled transcription factors and the nucleus of cells stained with a nucleus-specific dye ([…]) (Beum et al. 90-99; George et al. 117-29; Arechiga et al. 7800-04).
In order to compare signaling initiated by CRX-527 and CRX-547, the induction of nuclear translocation of NFκB and IRF-3 by CRX-527 and CRX-547 treatment is compared in the human monocytic cell line, MonoMac6 (MM6) using ImageStream analysis.
To determine whether CRX-547 is able to antagonize NFκB nuclear translocation in cells treated with constant CRX-527, MM6 cells are stimulated for 20 minutes, 35 minutes and 2 hrs with increasing doses of CRX-547 (FIG. 12). When AGPs are added at the same time, CRX-547 antagonized NFκB nuclear translocation induced by CRX-527 at the highest doses. When CRX-547 is constant and spiked with CRX-527 into the assay, CRX-527 stimulation is able to overcome the maximal effect of NFκB nuclear translocation with CRX-547 alone.

[2] = test system: human primary monocytes; assay: Western blot of human primary monocytes (IRAK-1, IRF-3); format: cell-based; details: Western blot time course
Description: (§1) For Western blot and phospho-Western blot protein analysis, cells are lysed with Cell Lysis Buffer (Cell Signaling Technology, Danvers, Mass.) with Protease Inhibitor Cocktail (Sigma, St. Louis Mo.). Western Blot on PVDF membranes (Millipore) is performed using standard methods. Bands are detected with ECL Advance Western Blot kit (GE Healthcare, Piscataway, N.J.). Secondary Anti-Rabbit HRP antibody is obtainable from KPL, (Gaithersburg, Md.). Anti-βactin, anti-IRF-3, anti-phospho-IRF-3 (Ser396) and anti-IRAK1 antibodies are obtained from Cell Signaling Technology (Danvers, Mass.).
Degradation of the Serine/Threonine Kinase, IRAK-1, occurs downstream of MyD88-dependent TLR4 signaling (Hatao et al, 260-64; Neumann et al. 1089-94), while TRIF-dependent TLR4 signaling results in IRF-3 activation (Yamamoto et al. 6668-72; Yamamoto et al. 640-43). Here, human primary monocytes are stimulated with either CRX-547 or CRX-527 for the indicated times, and cellular lysates are analyzed by Western Blot for the levels of the MyD88 pathway-activated kinase, IRAK-1, and the TRIF pathway-activated transcription factor, IRF-3 (phospho-IRF-3 and total IRF-3). The levels of β-actin is used as the loading control.

[3] = test system: MM6 cells; assay: Western blot of MM6 cells (IκBα, IRAK4, p38, IRF3); format: cell-based, human; details: for IRAK-4 / total IκBα / TRIF-mediated signaling proteins (phospho-p38, total p38, IRF3, phospho-IRF3): 10 ng/ml; for TRIF-mediated signaling proteins (phospho-p38, total p38, IRF3, phospho-IRF3): difference between the two AGPs
Description: as §1
The role of MAPK signaling molecules in MyD88 versus TRIF signaling after TLR4 ligation is complicated because p38 is implicated in both pathways, however a role for p38 phosphorylation as an indicator of the TRIF pathway is indicated in the literature. […] To determine whether the phosphorylation state of p38 is different after stimulation with CRX-527 versus CRX-547, western blot analysis is performed on lysates from MM6 cells.
MAPK pathways and downstream transcription factors are differentially regulated by TLR agonists. Degradation of IRAK4 and IκBα are indicative of MyD88 after TLR4 signaling (Hatao et al. 260-64; Neumann et al. 1089-94), while TRIF-mediated TLR4 signaling results in IRF3 activation (Yamamoto et al. 6668-72; Yamamoto et al. 640-43). MM6 cells are stimulated with either CRX-547 or CRX-527 (10 ng/ml) for the indicated time. Cellular lysates are collected and Western Blot analysis of the MyD88 pathway proteins, Phospho-IκBα, total IκBα, IRAK4, and TRIF pathway proteins, phospho-p38, total IRF3 and phospho IRF3 is performed using βactin as the loading control.

[4] = test system: PBMCs from BALB/c mice; assay: Cytokine induction in PBMCs from BALB/c mice; format: cell-based, mouse; details: CRX-527 versus CRX-547; experiment performed once
Description: To determine whether PBMCs from mouse blood have similar profiles of MyD88 cytokines after CRX-527 or CRX-547 treatment, commercially available blood from BALB/c mice is tested with CRX-527 or CRX-547. (FIG. 24), Levels appear to be similar between the two groups tested.

[5] = test system: RAW264.7 cells; assay: Western blot of signaling proteins in RAW264.7 cells; format: cell-based, mouse; details: 10 ng/ml, PMA pre-activated
Description: as §1
To determine whether the phosphorylation (activation) status of key protein signaling molecules in the TRIF versus MyD88 in RAW264.7 cells, cells are pre-activated with 10^−7M PMA) then stimulated with 10 ng/ml of the AGPs. Cellular lysates are prepared at 0, 15 m, 30 m, 45 m, 60 m, 120 m, 240 m, Similar to results in MM6 cells, IκBα degradation is faster after stimulation with CRX-527 compared to CRX-547 (FIG. 29). […] The increased reponsiveness of these cello could be due to the pre-activation with PMA, known to increase the maturation state of monocytic cells. CRX-547 induces expression of Phospho-IκBα and Phospho-IRF3. IRF3 is induced through TRIF mediated signaling. The amount of total IRF3 protein is also higher in the cells treated with CRX-547.

| SMILES | earliest NFκB nuclear translocation post-stimulation ([1]; MM6 cells) | NFκB nuclear translocation ([1]; MM6 cells, by thirty minutes) | IRAK-1 level (MyD88 pathway) [2] | IRAK-4 [3] | total IκBα [3] | TRIF-mediated signaling proteins (phospho-p38, total p38, IRF3, phospho-IRF3) [3] | phosphorylation state of p38 ([3]; compared to CRX-547) | MyD88 cytokine levels [4] | IκBα degradation ([5]; CRX-527 compared to CRX-547) | effect on NFκB nuclear translocation induced by CRX-527 ([1]; MM6, AGPs added at the same time, highest doses of CRX-547) | NFκB nuclear translocation, threshold never exceeded ([1]; MM6 cells, 5-120 minutes) | IRF3 phosphorylation ([5]; performed once) | IκBα phosphorylation ([5]; performed once) | amount of total IRF3 protein ([5]; performed once) |
| --- | --- | --- | --- | --- | --- | --- | --- | --- | --- | --- | --- | --- | --- | --- |
| CCCCCCCCCCCC(CC(=O)NC(COC1OC(CO)C(OP(=O)(O)O)C(OC(=O)CC(CCCCCCCCCCC)OC(=O)CCCCCCCCC)C1NC(=O)CC(CCCCCCCCCCC)OC(=O)CCCCCCCCC)C(=O)O)OC(=O)CCCCCCCCC.CCN(CC)CC (stereo not shown) [CRX-527] | ≤ 5 min | ~100% | rapid decrease; also recorded: greater degradation | rapid decrease; also recorded: greater degradation | rapid decrease | little or difference | slight increase | similar | faster | – | – | – | – | – |
| CCCCCCCCCCCC(CC(=O)NC(COC1OC(CO)C(OP(=O)(O)O)C(OC(=O)CC(CCCCCCCCCCC)OC(=O)CCCCCCCCC)C1NC(=O)CC(CCCCCCCCCCC)OC(=O)CCCCCCCCC)C(=O)O)OC(=O)CCCCCCCCC.CCN(CC)CC (stereo not shown) [CRX-547] | – | – | delayed and reduced degradation | delayed and less degradation | delayed and less degradation | little or difference | – | similar | – | antagonized | around 50% | higher degree | higher degree | higher |
